Measured values: ChEMBL document CHEMBL1124583, “New anticancer agents: chiral isomers of ethyl 5-amino-1,2-dihydro-2-methyl-3-phenylpyrido[3,4-b]pyrazine-7-car bamate ” (J Med Chem, 1989)

Key:
P388 [1] = experiment: Increase in the life span of mice with P388 leukemia after the administration of the highest non toxic dose (30 mg/kg); format: functional; conditions: Mus musculus
L1210 [2] = experiment: Inhibitory activity against lymphoid leukemia L1210 cells; format: functional, cell-based; conditions: Mus musculus
L1210 [3] = experiment: Mitotic index (fraction of cells in mitosis divided by total cells) in cultured lymphoid leukemia L1210 cells; format: functional, Mus musculus
P388 [4] = experiment: Increase in the life span of mice with P388 leukemia after the administration of the highest non toxic dose (1 mg/kg); format: functional; conditions: Mus musculus
P388 [5] = experiment: Increase in the life span of mice with P388 leukemia after the administration of the highest non toxic dose (2 mg/kg); format: functional, Mus musculus
P388 [6] = experiment: Increase in the life span of mice with P388 leukemia after the administration of the highest non toxic dose (0.5 mg/kg); format: functional, Mus musculus

## CCOC(=O)Nc1cc2c(c(N)n1)N=C(c1ccccc1)[C@@H](C)N2
P388 [1]
  ILS at 30 mg/kg: 88%
L1210 [2]
  IC50: 17 nM
L1210 [3]
  MI0.5: 27 nM

## CCOC(=O)Nc1cc2c(c(N)n1)N=C(c1ccccc1)C(C)N2 (configuration not stated)
L1210 [2]
  IC50: 0.2 nM
L1210 [3]
  MI0.5: 0.58 nM
P388 [4]
  ILS at 1 mg/kg: 71%

## CCOC(=O)Nc1cc2c(c(N)n1)N=C(c1ccccc1)CN2
L1210 [2]
  IC50: 4.7 nM
P388 [5]
  Increase: 51%
L1210 [3]
  MI0.5: 2.8 nM

## CCOC(=O)Nc1cc2c(c(N)n1)N=C(c1ccccc1)[C@H](C)N2 [MIVOBULIN]
L1210 [2]
  IC50: 0.094 nM
P388 [6]
  Increase: 64%
L1210 [3]
  MI0.5: 0.14 nM
